Assay [1] concerns the target T1, CDK7/Cyclin H/MAT-1 complex (Homo sapiens, UniProt P50613).
T1 construct: Human CDK7 (amino acids 1-346); His6 (N); TEV protease cleavage site (N); made in house; host or cells: baculovirus-SF9 insect cells
The assay is described as follows: Flint assay, end-point fluorescence (5 nM CDK7/Cyclin H/MAT-1 complex). The note with it: read-out: CDK7 (5 nM) pIC50 (converted). It counts as biochemical. The protocol:
(§1) Human CDK7 (amino acids 1-346) containing an N-terminal His6-tag followed by a tobacco etch virus (TEV) protease cleavage site, human MAT1 (amino acids 1-309) and human cyclin H (amino acids 1-323) were co-expressed in the baculovirus-SF9 insect cell expression system to generate a trimeric complex. Cell pellets were collected 72 h post-infection and were resuspended by Dounce homogenization in 20 mM Hepes-NaOH (pH 8.0), 300 mM NaCl, 10% glycerol, 2 mM dithiothreitol DTT), and 20 mM Imidazole supplemented with cOmplete™ Protease Inhibitor Cocktail (Roche) and 25 U/mL Benzonase® Nuclease HC according to the manufacturer's instructions. Cells were lysed by passing through a Microfluidics M110Y Microfluidizer 3 times at 600 kPa followed by centrifugation at 38,000×g at 4° C. for 1 hour. The supernatant was loaded onto a pre-equilibrated HisTrap HP column and eluted in 20 mM Hepes-NaOH (pH 8.0), 50 mM NaCl, 10% glycerol, 2 mM DTT, and 400 mM Imidazole. The eluate was further purified by gel filtration on a Superdex S200 16/60 column and eluted with 20 mM Hepes-NaOH (pH 7.5), 50 mM NaCl, 10% Glycerol, 2 mM DTT. Fractions containing a trimeric complex of CDK7, cyclin H, and MAT1 in a 1:1:1 ratio were pooled and concentrated to 3 mg/mL in a 10 kDa MWCO concentrator, and diluted to a final concentration of 1.6 mg/mL in 11.1 mM Hepes-NaOH (pH 8.0), 27.8 mM NaCl, 1.1 mM DTT and 50% glycerol.
Compounds with potencies approaching the limit of detection of the assay (IC50≤10 nM) were further assessed in a more sensitive fluorescence end-point assay.
(§2) [formula] where νo is the rate in the absence of inhibitor, νmin is the rate at highest inhibitor concentration, and h is the Hill coefficient. Flint Assay (5 nM CDK7/Cyclin H/MAT-1 Complex)
The continuous absorbance assay was converted to an end-point fluorescence assay following the NADH fluorescence signal decrease at the excitation and emission wavelengths of 340 nm and 440 nm, respectively.
Under the same concentrations of substrates and coupling reagents used in the absorbance assay, the fluorescence assay was performed at a reduced concentration of the CDK7/Cyclin H/MAT-1 complex of 5 nM (final concentration) with a reaction time of 24 hours. The percent of inhibition was calculated by the following equation. Percent of inhibition=(Sample−NC)/(PC−NC)*100 where NC is the mean if negative control (reaction without inhibitor), and PC is the mean of positive control (reaction with complete inhibition).
Dosing curves were fitted using the following equation to obtain IC50: Y=Bottom+(Top−Bottom)/(1+10^((log IC50−X)*Hill slope)) where X=log10 of the compound concentration; top and bottom can be defined by PC and NC respectively. Imaging-Based Cellular RNA PolII Ser5 Phosphorylation Assay

The subject of assay [2] is RNA polymerase II Serine 5 phosphorylation (Rpb1 CTD), downstream substrate of CDK7. The assay is described as follows: Imaging-based cellular RNA PolII Ser5 phosphorylation assay in A549 cells. The assay is classed as cell-based, human. The note with it: challenged with compound for 3 hours; for IC50: Homo sapiens, A549, 3 h, read-out: pRNA polII Ser5 (A549) pIC50 (converted). In outline:
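A549 cells seeded 20 h in DMEM with 1% FBS, then exposed to compound for 3 h at 37 °C; fixed, methanol-permeabilized and immunostained for phospho-Rpb1 CTD Ser5, read by automated imaging. Signal normalized to DMSO (high) and 10 μM LDC4297 (low) controls; IC50 from four-parameter fit of % control vs concentration.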

Assay [3] addresses T1, CDK7/Cyclin H/MAT-1 complex. The assay can be described thus: Absorbance kinetic assay (20 nM CDK7/Cyclin H/MAT-1 complex). The assay is classed as biochemical. The note with it: for IC50: read-out: CDK7 (20 nM) pIC50 (converted). The protocol: as §1, with “glycerol. […]” for “glycerol.”
Absorbance Kinetic Assay (20 nM CDK7/Cyclin H/MAT-1 Complex)
CDK7 complex catalyzes the ATP-dependent phosphorylation of a peptide substrate CDK7/9-tide that is derived from RNA Pol II to produce phosphorylated peptide and ADP. The kinase reaction product ADP was converted to lactate and NAD^+ in the presence of phosphoenol pyruvate (PEP), NADH and coupling enzymes lactate dehydrogenase (LDH) and pyruvate kinase (PK). CDK7 complex catalytic activity was measured by following the absorbance intensity continuously at 340 nm that corresponds with the depletion of NADH.
Absorbance at 340 nm was followed kinetically at an interval of 2 minutes for 8 hours.
The assay was carried out with 100 μl reaction volume per well in a 384-well plate that was pre-spotted nanoliter volume of compounds by LabCyte Echo 555. Compound dilution plates were made by 2-fold (could vary upon necessity) dilution in DMSO for 11 concentrations plus a DMSO control of uninhibited reaction. 2× substrate and coupling reagent mixture was added to the assay plate followed by an addition of an equal volume of 40 nM CDK7/Cyclin H/MAT-1 complex. After mixing, assay plates were spun at 2000 rpm for 3 minutes and then transferred to the plate reader for data collection.
For reversible inhibitors, the absorbance reaction progress curves were linear. The steady-state rate was derived from the slope of the linear curves. The following equation is applied to determine percent inhibition.
[formula] • νo=max rate (uninhibited rate) • νi=inhibited rate
The IC50 value is calculated by the following equation:
as §2

T1 sequence (P50613 whole entry, the tested form may be a part): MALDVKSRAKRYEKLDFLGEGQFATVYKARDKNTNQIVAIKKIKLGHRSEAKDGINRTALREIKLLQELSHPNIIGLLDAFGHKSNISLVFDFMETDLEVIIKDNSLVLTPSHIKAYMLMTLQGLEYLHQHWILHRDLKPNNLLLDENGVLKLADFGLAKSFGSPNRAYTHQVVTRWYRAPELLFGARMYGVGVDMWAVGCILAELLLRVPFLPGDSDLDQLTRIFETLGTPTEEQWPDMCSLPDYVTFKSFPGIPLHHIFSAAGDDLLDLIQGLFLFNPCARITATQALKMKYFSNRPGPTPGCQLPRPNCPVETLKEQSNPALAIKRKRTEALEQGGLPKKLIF
T1 sequence (P51946 whole entry partner, the tested form may be a part): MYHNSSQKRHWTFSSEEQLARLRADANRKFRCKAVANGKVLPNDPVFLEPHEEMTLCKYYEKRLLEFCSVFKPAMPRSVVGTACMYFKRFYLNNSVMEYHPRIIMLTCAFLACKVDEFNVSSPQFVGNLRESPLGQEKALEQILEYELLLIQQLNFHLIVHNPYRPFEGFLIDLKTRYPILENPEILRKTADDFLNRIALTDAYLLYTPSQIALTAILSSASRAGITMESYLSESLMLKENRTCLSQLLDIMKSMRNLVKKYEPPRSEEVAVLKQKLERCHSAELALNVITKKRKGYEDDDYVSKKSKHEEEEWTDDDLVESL
T1 sequence (P51948 whole entry partner, the tested form may be a part): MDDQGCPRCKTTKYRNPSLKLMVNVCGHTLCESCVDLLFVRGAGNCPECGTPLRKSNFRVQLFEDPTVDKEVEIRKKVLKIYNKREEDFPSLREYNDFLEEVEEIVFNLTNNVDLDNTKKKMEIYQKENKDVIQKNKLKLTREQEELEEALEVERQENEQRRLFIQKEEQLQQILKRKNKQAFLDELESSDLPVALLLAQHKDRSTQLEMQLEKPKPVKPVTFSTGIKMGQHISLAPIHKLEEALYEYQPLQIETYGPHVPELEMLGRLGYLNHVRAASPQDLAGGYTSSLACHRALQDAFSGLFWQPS

For the compound `[2H]C([2H])([2H])N1CC[C@H](C(=O)N2Cc3nc(NC4CCOCC4)ncc3C[C@H]2C)[C@@H](c2ccccc2)C1` (single isomer, unassigned) [Compound 156], the IC50 in assay [1] is 3.24 nM; in assay [2], 126 nM.

Consider `CO[C@H]1CC[C@H](Nc2cc3c(cn2)C[C@H](C)N(C(=O)[C@H]2CCN(C)C[C@@H]2c2ccccc2)C3)CC1` (single isomer, unassigned) [Compound 172], for which the IC50 in assay [1] was 7.41 nM; in assay [2], 186 nM.

On to `C[C@@H]1Cc2cnc(NC3CCOCC3)nc2CN1C(=O)[C@H]1CCN(C)C[C@@H]1c1ccc(F)cc1` (relative stereo) [Compound 120], for which the IC50 was 12 nM in assay [3] and roughly 67.6 nM in assay [2].

Consider `C[C@@H]1Cc2cnc(NC3CCOCC3)nc2CN1C(=O)[C@@H]1CCN(C)C[C@H]1c1ccc(F)cc1` [Compound 92a], for which the “CDK7 (20 nM) pIC50” value in assay [3] worked out at 5.11. Moreover, the IC50 in assay [2] was greater than 10000 nM.

As for `C[C@@H]1Cc2cnc(NC3CCN(C4CC4)CC3)nc2CN1C(=O)[C@H]1CCN(C)C[C@@H]1c1ccccc1` [Compound 42], the “CDK7 (20 nM) pIC50” value in assay [3] is on record as 7.39. For the same compound, the IC50 in assay [2] was 1380 nM.

Consider `CO[C@]1(C)CC[C@H](Nc2ncc3c(n2)CN(C(=O)[C@H]2CCN(C)C[C@@H]2c2ccccc2)[C@H](C)C3)CC1` [Compound 11], for which the results for the IC50 in assay [3] and in assay [2] were 13.8 nM and 1350 nM, respectively.

For the compound `C[C@@H]1C[C@H](C(=O)N2Cc3nc(NC4CCOCC4)ncc3C[C@H]2C)[C@@H](c2ccccc2)CN1C` (relative stereo) [Compound 170a], the IC50 in assay [3] is 794 nM; in assay [2], greater than 10000 nM.

Regarding `CC(C)N1CC[C@@H](C(=O)N2Cc3nc(NC4CCOCC4)ncc3C[C@H]2C)[C@H](c2cccc(F)c2)C1` (single isomer, unassigned) [Compound 164], the “CDK7 (20 nM) pIC50” value in assay [3] is on record as 6.06. Moreover, the IC50 in assay [2] was 4070 nM.

As for `C[C@@H]1Cc2cnc(NCC3CC3)nc2CN1C(=O)[C@H]1CCN(C)C[C@@H]1c1ccccc1` [Compound 34], the “CDK7 (20 nM) pIC50” value in assay [3] was found to be 7.94. For the same compound, the IC50 in assay [2] is 275 nM.

For the compound `C[C@@H]1Cc2cnc(NCC3CCOCC3)nc2CN1C(=O)[C@H]1CCN(C)C[C@@H]1c1ccccc1` [Compound 36], the “CDK7 (20 nM) pIC50” value in assay [3] worked out at 7.19. For the same compound, the IC50 in assay [2] is 2400 nM.

Turning to `C[C@@H]1Cc2cnc(N[C@@H]3CCN(C)C(=O)C3)nc2CN1C(=O)[C@H]1CCN(C)C[C@@H]1c1ccccc1` (relative stereo) [Compound 4], the IC50 in assay [3] is 35.5 nM; in assay [2] it was roughly 8130 nM.

As to `CC(C)N1CC[C@H](C(=O)N2Cc3nc(NC4CCOCC4)ncc3C[C@H]2C)[C@@H](c2cccc(F)c2)C1` (single isomer, unassigned) [Compound 163], the “CDK7 (20 nM) pIC50” value in assay [3] was 6.83. Moreover, in assay [2], the IC50 was 162 nM.

Consider `CC[C@@H]1Cc2cnc(NC3CCOCC3)nc2CN1C(=O)[C@H]1CCN(C)C[C@@H]1c1ccccc1` (relative stereo) [Compound 185], for which the IC50 is 42.7 nM in assay [3] and 724 nM in assay [2].

Take `CO[C@H]1CC[C@H](Nc2cc3c(cn2)C[C@H](C)N(C(=O)[C@@H]2CCN(C)C[C@H]2c2cccc(C)c2)C3)CC1` [Compound 177b]: the “CDK7 (20 nM) pIC50” value in assay [3] is on record as less than 5. For the same compound, in assay [2], the “pRNA polII Ser5 (A549) pIC50” value is listed as roughly 5.23.

In the case of `C[C@@H]1Cc2cnc(N[C@H](C)c3ccccn3)nc2CN1C(=O)[C@H]1CCN(C)C[C@@H]1c1ccccc1` [Compound 21], the “CDK7 (20 nM) pIC50” value in assay [3] was 7.97. The IC50 in assay [2] is 302 nM.

Take `Cc1cc(C2CN(C)CCC2C(=O)N2Cc3nc(NC4CCOCC4)ncc3C[C@H]2C)ccn1` (stereo partly drawn) [Compound 101]: the “CDK7 (20 nM) pIC50” value in assay [3] is 7.67. Moreover, the IC50 in assay [2] was 4470 nM.

Turning to `C[C@@H]1Cc2cnc(NCc3cn(C)cn3)nc2CN1C(=O)[C@H]1CCN(C)C[C@@H]1c1ccccc1` [Compound 63], the “CDK7 (20 nM) pIC50” value in assay [3] was 7.38. Further, in assay [2], the IC50 was greater than 10000 nM.

Regarding `Cc1cccc([C@@H]2CN(C)CC[C@H]2C(=O)N2Cc3nc(NC4CCOCC4)ncc3C[C@H]2C)c1` (relative stereo) [Compound 137], the figures for the IC50 in assay [3] and in assay [2] were 457 nM and 955 nM, respectively.

Consider `Cc1ccc([C@H]2CN(C)CC[C@@H]2C(=O)N2Cc3nc(NC4CCOCC4)ncc3C[C@H]2C)cc1` (relative stereo) [Compound 118], for which the IC50 in assay [3] is 11.7 nM; in assay [2], 269 nM.

Regarding `C[C@@H]1Cc2cnc(NC3CCOCC3)nc2[C@@H](C)N1C(=O)[C@H]1CCN(C)C[C@@H]1c1ccccc1` (single isomer, unassigned) [Compound 195a], the results for the IC50 in assay [3] and in assay [2] were 4680 nM and greater than 10000 nM, respectively.

For `C[C@H](Nc1ncc2c(n1)CN(C(=O)[C@H]1CCN(C)C[C@@H]1c1ccccc1)[C@H](C)C2)c1ccccc1` [Compound 23], in assay [3], the “CDK7 (20 nM) pIC50” value was 7.97. Besides, in assay [2], the IC50 is 302 nM.

In the case of `C[C@@H]1Cc2cnc(NC3CCOCC3)nc2CN1C(=O)[C@H]1CCN(C)C[C@@H]1c1cccc(Cl)c1` (relative stereo) [Compound 119], the values for the IC50 in assay [3] and in assay [2] were 72.4 nM and roughly 39.8 nM, respectively.

For the compound `C[C@@H]1Cc2cnc(NC3CCN(C4COC4)CC3)nc2CN1C(=O)[C@H]1CCN(C)C[C@@H]1c1ccccc1` [Compound 25], the “CDK7 (20 nM) pIC50” value in assay [3] was determined as 7.46. Besides, the IC50 in assay [2] is 776 nM.

Regarding `C[C@@H]1Cc2cnc(NCC3CCOC3)nc2CN1C(=O)[C@H]1CCN(C)C[C@@H]1c1ccccc1` (stereo partly drawn) [Compound 26], the “CDK7 (20 nM) pIC50” value in assay [3] was 7.85. In addition, in assay [2], the IC50 was 302 nM.

For the origin of these results see patent US12679839B2, “Cyclin-dependent kinase 7 (CDK7) non-covalent inhibitors” (JANSSEN PHARMACEUTICA NV, priority 2020, dated 2026).
